Data: patent US20250171498A1, “ANTIBIOTIC COMPOUNDS, FORMULATIONS AND METHODS OF USE” (UNIVERSITEIT LEIDEN, priority 2022, published 2025)
Values after ≈ are worked out from the molar mass of the structure shown. Like-named read-outs stand apart in the source and are kept apart here. *1 amine or outer side, *2 acyl side, *3 side chain or, on linkers, in order; H or OH if unused. Where a SMILES comes first, the peptide text is derived from it. Bridges are numbered along the chain shown (N, C = ends). [ ]: non-standard residue; d: D form. The star is where a group is joined. X1 = CC(C)CCCCC[C@@H](N[*:1])C(=O)[*:2]; S(2-cyclohexylethyl) = C1CCC(CCS*)CC1; S(3-Cl-benzyl) = Clc1cccc(CS*)c1; S(3-Methylbutyl) = CC(C)CCS*; dDab = NCC[C@@H](N)C(=O)O; dDap = NC[C@@H](N)C(=O)O; Dab = NCC[C@H](N)C(=O)O; Dap = NC[C@H](N)C(=O)O

What was measured:
Format in all cases: cell-based
[1] = test system: renal Proximal Tubular Epithelial Cells (PTECs); assay: Toxicity on renal Proximal Tubular Epithelial Cells
Protocol: (§1) Compounds were prepared according to scheme 2, 3, 4, 6, 7, or 8 above, preparing different sets of compounds with different substitution patterns. All polymyxin analogues prepared were tested for their anti-bacterial activity on relevant Gram-negative strains (Table B). Polymyxin B and PMBN were taken along as references. In addition, the toxicity on renal Proximal Tubular Epithelial Cells (PTECs) was evaluated.
(§2) 3rd Generation compounds were also subjected to testing for their anti-bacterial activity on relevant Gram-negative strains (Table C). Polymyxin B and PMBN were taken along as references. In addition, the toxicity on renal Proximal Tubular Epithelial Cells (PTECs) was evaluated, see Table C.

E. Coli (ATCC 25922) = test system: E. Coli (ATCC 25922)
Protocol: as §1, §2

A. Baumanni (ATCC 19606) = test system: A. Baumanni (ATCC 19606)
Protocol: as §1, §2

[2] = test system: P. Aeruginosa (ATCC 27853)
Protocol: as §1, §2

[3] = test system: K. Pneumoniae (ATCC 13883)
Protocol: as §1, §2

Compound	PTEC Toxicity (relative to polymyxin B) [1]	MIC E. Coli (ATCC 25922) (E. Coli (ATCC 25922); ATCC 25922) [µg/mL]	MIC A. Baumanni (ATCC 19606) (A. Baumanni (ATCC 19606); ATCC 19606) [µg/mL]	MIC P. Aeruginosa (ATCC 27853) ([2]; ATCC 27853) [µg/mL]	MIC K. Pneumoniae (ATCC 13883) ([3]; ATCC 13883) [µg/mL]	PTEC Toxicity (relative to polymyxin B) ([1]; relative value, polymyxin B = 1)	MIC E. Coli (ATCC 25922) (E. Coli (ATCC 25922); strain ATCC 25922) [µg/mL]	MIC A. Baumanni (ATCC 19606) (A. Baumanni (ATCC 19606); strain ATCC 19606) [µg/mL]	MIC P. Aeruginosa (ATCC 27853) ([2]; strain ATCC 27853) [µg/mL]	MIC K. Pneumoniae (ATCC 13883) ([3]; strain ATCC 13883) [µg/mL]
CC(C)C[C@@H]1NC(=O)[C@@H](Cc2ccccc2)NC(=O)[C@H](CCN)NC(=O)[C@@H](NC(=O)CNC(=O)[C@@H](NC(=O)[C@H](N)CSSCc2cccc(Cl)c2)[C@@H](C)O)CCNC(=O)[C@H]([C@@H](C)O)NC(=O)[C@H](CCN)NC(=O)[C@H](CCN)NC1=O (H-[dC](S(3-Cl-benzyl))TG[Dab][Dab][dF]L[Dab][Dab]T; lactam 4-C)	7.4	2 (≈ 1.7 µM)	1 (≈ 0.848 µM)	4 (≈ 3.39 µM)	1 (≈ 0.848 µM)	–	–	–	–	–
CC(C)C[C@@H]1NC(=O)[C@@H](Cc2ccccc2)NC(=O)[C@H](CCN)NC(=O)[C@@H](NC(=O)[C@@H](CCN)NC(=O)[C@@H](NC(=O)[C@H](N)CSSCc2cccc(Cl)c2)[C@@H](C)O)CCNC(=O)[C@H]([C@@H](C)O)NC(=O)[C@H](CCN)NC(=O)[C@H](CCN)NC1=O (H-[dC](S(3-Cl-benzyl))T[dDab][Dab][Dab][dF]L[Dab][Dab]T; lactam 4-C)	7.0	2 (≈ 1.64 µM)	0.5 (≈ 0.409 µM)	2 (≈ 1.64 µM)	1 (≈ 0.818 µM)	–	–	–	–	–
CC(C)C[C@@H]1NC(=O)[C@@H](Cc2ccccc2)NC(=O)[C@H](CCN)NC(=O)[C@@H](NC(=O)[C@H](CN)NC(=O)[C@@H](NC(=O)[C@H](N)CSSCc2cccc(Cl)c2)[C@@H](C)O)CCNC(=O)[C@H]([C@@H](C)O)NC(=O)[C@H](CCN)NC(=O)[C@H](CCN)NC1=O (H-[dC](S(3-Cl-benzyl))T[Dap][Dab][Dab][dF]L[Dab][Dab]T; lactam 4-C)	4.8	2 (≈ 1.65 µM)	0.5 (≈ 0.414 µM)	4 (≈ 3.31 µM)	0.5 (≈ 0.414 µM)	–	–	–	–	–
CC(C)CCSSC[C@@H](N)C(=O)N[C@H](C(=O)N[C@@H](CCN)C(=O)N[C@H]1CCNC(=O)[C@H]([C@@H](C)O)NC(=O)[C@H](CCN)NC(=O)[C@H](CCN)NC(=O)[C@H](CC(C)C)NC(=O)[C@@H](Cc2ccccc2)NC(=O)[C@H](CCN)NC1=O)[C@@H](C)O [drawing 95] (H-[dC](S(3-Methylbutyl))T[Dab][Dab][Dab][dF]L[Dab][Dab]T; lactam 4-C)	4.7	1 (≈ 0.856 µM)	1 (≈ 0.856 µM)	1 (≈ 0.856 µM)	0.5 (≈ 0.428 µM)	–	–	–	–	–
CC(C)C[C@@H]1NC(=O)[C@@H](Cc2ccccc2)NC(=O)[C@H](CCN)NC(=O)[C@@H](NC(=O)[C@@H](CN)NC(=O)[C@@H](NC(=O)[C@H](N)CSSCCC2CCCCC2)[C@@H](C)O)CCNC(=O)[C@H]([C@@H](C)O)NC(=O)[C@H](CCN)NC(=O)[C@H](CCN)NC1=O (H-[dC](S(2-cyclohexylethyl))T[dDap][Dab][Dab][dF]L[Dab][Dab]T; lactam 4-C)	5.4	2 (≈ 1.67 µM)	0.5 (≈ 0.419 µM)	2 (≈ 1.67 µM)	1 (≈ 0.837 µM)	–	–	–	–	–
CC(C)C[C@@H]1NC(=O)[C@@H](Cc2ccccc2)NC(=O)[C@H](CCN)NC(=O)[C@@H](NC(=O)[C@@H](CO)NC(=O)[C@@H](NC(=O)[C@H](N)CSSCCC2CCCCC2)[C@@H](C)O)CCNC(=O)[C@H]([C@@H](C)O)NC(=O)[C@H](CCN)NC(=O)[C@H](CCN)NC1=O (H-[dC](S(2-cyclohexylethyl))T[dS][Dab][Dab][dF]L[Dab][Dab]T; lactam 4-C)	3.3	2 (≈ 1.67 µM)	0.25 (≈ 0.209 µM)	4 (≈ 3.35 µM)	1 (≈ 0.836 µM)	–	–	–	–	–
Polymyxin B [reference compound]	–	–	–	–	–	1	1	0.25	1	0.25
CC(C)C[C@@H]1NC(=O)[C@@H](Cc2ccccc2)NC(=O)[C@H](CCN)NC(=O)[C@@H](NC(=O)[C@H](CN)NC(=O)[C@@H](NC(=O)[C@H](N)CSSCCC2CCCCC2)[C@@H](C)O)CCNC(=O)[C@H]([C@@H](C)O)NC(=O)[C@H](CCN)NC(=O)[C@H](CCN)NC1=O (H-[dC](S(2-cyclohexylethyl))T[Dap][Dab][Dab][dF]L[Dab][Dab]T; lactam 4-C)	2.9	1 (≈ 0.837 µM)	0.5 (≈ 0.419 µM)	2 (≈ 1.67 µM)	1 (≈ 0.837 µM)	–	–	–	–	–
CC(C)C[C@@H]1NC(=O)[C@@H](Cc2ccccc2)NC(=O)[C@H](CCN)NC(=O)[C@@H](NC(=O)[C@@H](CCN)NC(=O)[C@@H](NC(=O)[C@H](N)CSSCCC2CCCCC2)[C@@H](C)O)CCNC(=O)[C@H]([C@@H](C)O)NC(=O)[C@H](CCN)NC(=O)[C@H](CCN)NC1=O (H-[dC](S(2-cyclohexylethyl))T[dDab][Dab][Dab][dF]L[Dab][Dab]T; lactam 4-C)	4.8	2 (≈ 1.65 µM)	0.5 (≈ 0.414 µM)	2 (≈ 1.65 µM)	1 (≈ 0.827 µM)	–	–	–	–	–
CC(C)C[C@@H]1NC(=O)[C@@H](Cc2ccccc2)NC(=O)[C@H](CCN)NC(=O)[C@@H](NC(=O)CNC(=O)[C@@H](NC(=O)[C@H](N)CSSCCC2CCCCC2)[C@@H](C)O)CCNC(=O)[C@H]([C@@H](C)O)NC(=O)[C@H](CCN)NC(=O)[C@H](CCN)NC1=O (H-[dC](S(2-cyclohexylethyl))TG[Dab][Dab][dF]L[Dab][Dab]T; lactam 4-C)	7.4	2 (≈ 1.72 µM)	0.5 (≈ 0.429 µM)	2 (≈ 1.72 µM)	1 (≈ 0.858 µM)	–	–	–	–	–
CC(C)CCSSC[C@@H](N)C(=O)N[C@H](C(=O)N[C@@H](CCN)C(=O)N[C@H]1CCNC(=O)[C@H]([C@@H](C)O)NC(=O)[C@H](CCN)NC(=O)[C@H](CCN)NC(=O)[C@H](CC(C)C)NC(=O)[C@@H](Cc2ccccc2)NC(=O)[C@H](CCN)NC1=O)[C@@H](C)O [drawing 140] (H-[dC](S(3-Methylbutyl))T[Dab][Dab][Dab][dF]L[Dab][Dab]T; lactam 4-C)	9.8	1 (≈ 0.856 µM)	0.5 (≈ 0.428 µM)	1 (≈ 0.856 µM)	0.5 (≈ 0.428 µM)	–	–	–	–	–
CC(C)CCCCC[C@@H](N)C(=O)N[C@H](C(=O)N[C@@H](CN)C(=O)N[C@H]1CCNC(=O)[C@H]([C@@H](C)O)NC(=O)[C@H](CCN)NC(=O)[C@H](CCN)NC(=O)[C@H](CC(C)C)NC(=O)[C@@H](Cc2ccccc2)NC(=O)[C@H](CCN)NC1=O)[C@@H](C)O (H-[X1]T[Dap][Dab][Dab][dF]L[Dab][Dab]T; lactam 4-C)	7.8	1 (≈ 0.894 µM)	0.25 (≈ 0.224 µM)	1 (≈ 0.894 µM)	0.25 (≈ 0.224 µM)	–	–	–	–	–
CC(C)C[C@@H]1NC(=O)[C@@H](Cc2ccccc2)NC(=O)[C@H](CCN)NC(=O)[C@@H](NC(=O)[C@@H](CN)NC(=O)[C@@H](NC(=O)[C@H](N)CSSCc2cccc(Cl)c2)[C@@H](C)O)CCNC(=O)[C@H]([C@@H](C)O)NC(=O)[C@H](CCN)NC(=O)[C@H](CCN)NC1=O (H-[dC](S(3-Cl-benzyl))T[dDap][Dab][Dab][dF]L[Dab][Dab]T; lactam 4-C)	5.7	2 (≈ 1.65 µM)	0.5 (≈ 0.414 µM)	1 (≈ 0.827 µM)	0.5 (≈ 0.414 µM)	–	–	–	–	–
CC(C)C[C@@H]1NC(=O)[C@@H](Cc2ccccc2)NC(=O)[C@H](CCN)NC(=O)[C@@H](NC(=O)[C@@H](CO)NC(=O)[C@@H](NC(=O)[C@H](N)CSSCc2cccc(Cl)c2)[C@@H](C)O)CCNC(=O)[C@H]([C@@H](C)O)NC(=O)[C@H](CCN)NC(=O)[C@H](CCN)NC1=O (H-[dC](S(3-Cl-benzyl))T[dS][Dab][Dab][dF]L[Dab][Dab]T; lactam 4-C)	6.7	2 (≈ 1.65 µM)	0.5 (≈ 0.413 µM)	4 (≈ 3.31 µM)	1 (≈ 0.827 µM)	–	–	–	–	–
CC(C)CCSSC[C@@H](N)C(=O)N[C@H](C(=O)N[C@H](CO)C(=O)N[C@H]1CCNC(=O)[C@H]([C@@H](C)O)NC(=O)[C@H](CCN)NC(=O)[C@H](CCN)NC(=O)[C@H](CC(C)C)NC(=O)[C@@H](Cc2ccccc2)NC(=O)[C@H](CCN)NC1=O)[C@@H](C)O (H-[dC](S(3-Methylbutyl))T[dS][Dab][Dab][dF]L[Dab][Dab]T; lactam 4-C)	21.2	2 (≈ 1.73 µM)	0.25 (≈ 0.216 µM)	4 (≈ 3.46 µM)	0.5 (≈ 0.433 µM)	–	–	–	–	–
